Measurements taken from patent US8889621B2, “Inhibiting binding of FGF23 to the binary FGFR-Klotho complex for the treatment of hypophosphatemia” (New York University, priority 2009, dated 2014).
Read-outs that look alike come from different tables or passages of the source. Peptide text beside a SMILES is read from it.

Tested on: opossum kidney cell line OKP
Format: cell-based
Conditions: for effect on phosphate uptake when applied alone: 500 nM
Excerpt: The effects of FGF23 proteins/peptides on sodium-coupled phosphate uptake were studied in the opossum kidney cell line OKP (Miyauchi et al., “Stimulation of transient elevations in cytosolic Ca2+ is related to inhibition of Pi transport in OK cells,” Am J Physiol 259(3 Pt 2):[…]-493 (1990), which is hereby incorporated by reference in its entirety). The cell line has many characteristics of renal proximal tubule epithelium, including sodium gradient-dependent phosphate transport and sensitivity to parathyroid hormone (Miyauchi et al., “Stimulation of transient elevations in cytosolic Ca2+ is related to inhibition of Pi transport in OK cells,” Am J Physiol 259(3 Pt 2):[…]-493 (1990), which is hereby incorporated by reference in its entirety). OKP cells also express FGFR1-4 and Klotho (see next methods section). OKP cells were grown in culture as described previously (Hu et al., “Dopamine Acutely Stimulates Na+/H+ Exchanger (NHE3) Endocytosis Via Clathrin-coated Vesicles: Dependence on Protein Kinase A-mediated NHE3 Phosphorylation,” J Biol Chem 276(29):26906-26915 (2001), which is hereby incorporated by reference in its entirety). Cells grown in 24-well plates were stimulated for 4 h with FGF23^28-251 (0.5 to 1 nM), FGF23^180-251 (500 nM), FGF23^180-205 (500 nM), or mixtures of FGF23^28-251 (1 nM) with either FGF23^180-251 (1 to 500 nM) or FGF23^180-205 (1 to 500 nM). The 1 nM concentration of FGF23^28-251 was chosen for competition experiments with FGF23 C-terminal peptides because at this concentration, half-maximum inhibition of phosphate uptake is reached. After stimulation, the cells were rinsed with Na^+-free solution followed by 5 min incubation with uptake solution containing 100 μM KH2^32PO4 (2 mCi/ml, Perkin Elmer). The reaction was stopped by aspiration of uptake solution and washing cells with ice-cold stop solution (10 mM HEPES pH 7.4, 140 mM NaCl, 1 mM MgCl2). Each transport reaction was performed in triplicates.

Molecule	effect on phosphate uptake when applied alone (4 h)	IC50 (4 h) [nM]	antagonism of FGF23 inhibition of phosphate uptake (FGF23^28-251 1 nM, 4 h stimulation)	IC50 (4 h stimulation, read-out: concentration at which half-maximum inhibition of phosphate uptake is reached) [nM]
CSCC[C@H](NC(=O)[C@H](CCCNC(=N)N)NC(=O)[C@H](C)NC(=O)[C@H](CCCNC(=N)N)NC(=O)[C@@H]1CCCN1C(=O)[C@H](CCCCN)NC(=O)[C@H](CC(C)C)NC(=O)[C@@H](NC(=O)[C@H](CC(N)=O)NC(=O)[C@H](CC(C)C)NC(=O)[C@@H]1CCCN1C(=O)[C@H](CC(=O)O)NC(=O)[C@H](CCCNC(=N)N)NC(=O)[C@H](CCC(=O)O)NC(=O)[C@H](CO)NC(=O)[C@H](CC(=O)O)NC(=O)[C@H](CC(=O)O)NC(=O)[C@H](CCC(=O)O)NC(=O)[C@H](C)NC(=O)[C@@H](N)CO)C(C)C)C(=O)N[C@H](C(=O)N1CCC[C@H]1C(=O)N[C@@H](C)C(=O)N1CCC[C@H]1C(=O)N[C@@H](C)C(=O)N[C@@H](CO)C(=O)O)[C@@H](C)O [FGF23^180-205] (H-SAEDDSERDPLNVLKPRARMTPAPAS-OH; N-terminus and C-terminus assumed)	neither of the two FGF23 C-terminal peptides altered phosphate uptake	100 to 500	similar, albeit less potent antagonistic effect	
FGF23^28-251: human FGF23 (A28 to I251), bioactive full-length ligand expressed in E. coli (protein, listed as Homo sapiens) ASPLLGSSWGGLIHLYTATARNSYHLQIHKNGHVDGAPHQTIYSALMIRSEDAGFVVITGVMSRRYLCMDFRGNIFGSHYFDPENCRFQHQTLENGYDVYHSPQYHFLVSLGRAKRAFLPGMNPPPYSQFLSRRNEIPLIHFNTPIPRRHTRSAEDDSERDPLNVLKPRARMTPAPASCSQELPSAEDNSPMASDPLGVVRGGRVNTHAGGTGPEGCRPFAKFI				1
FGF23^180-251: 72-amino acid C-terminal tail of human FGF23 (S180 to I251), expressed in E. coli (protein, listed as Homo sapiens) SAEDDSERDPLNVLKPRARMTPAPASCSQELPSAEDNSPMASDPLGVVRGGRVNTHAGGTGPEGCRPFAKFI	neither of the two FGF23 C-terminal peptides altered phosphate uptake			
